The target of assay [1] is T1, dihydropyrimidine dehydrogenase (DPD) (Homo sapiens, UniProt Q12882).
T1 construct: from tissue; host or cells: donor whole blood (K2EDTA), plasma separated from it, and WBC/buffy coat
T1 sequence (Q12882 4-1025): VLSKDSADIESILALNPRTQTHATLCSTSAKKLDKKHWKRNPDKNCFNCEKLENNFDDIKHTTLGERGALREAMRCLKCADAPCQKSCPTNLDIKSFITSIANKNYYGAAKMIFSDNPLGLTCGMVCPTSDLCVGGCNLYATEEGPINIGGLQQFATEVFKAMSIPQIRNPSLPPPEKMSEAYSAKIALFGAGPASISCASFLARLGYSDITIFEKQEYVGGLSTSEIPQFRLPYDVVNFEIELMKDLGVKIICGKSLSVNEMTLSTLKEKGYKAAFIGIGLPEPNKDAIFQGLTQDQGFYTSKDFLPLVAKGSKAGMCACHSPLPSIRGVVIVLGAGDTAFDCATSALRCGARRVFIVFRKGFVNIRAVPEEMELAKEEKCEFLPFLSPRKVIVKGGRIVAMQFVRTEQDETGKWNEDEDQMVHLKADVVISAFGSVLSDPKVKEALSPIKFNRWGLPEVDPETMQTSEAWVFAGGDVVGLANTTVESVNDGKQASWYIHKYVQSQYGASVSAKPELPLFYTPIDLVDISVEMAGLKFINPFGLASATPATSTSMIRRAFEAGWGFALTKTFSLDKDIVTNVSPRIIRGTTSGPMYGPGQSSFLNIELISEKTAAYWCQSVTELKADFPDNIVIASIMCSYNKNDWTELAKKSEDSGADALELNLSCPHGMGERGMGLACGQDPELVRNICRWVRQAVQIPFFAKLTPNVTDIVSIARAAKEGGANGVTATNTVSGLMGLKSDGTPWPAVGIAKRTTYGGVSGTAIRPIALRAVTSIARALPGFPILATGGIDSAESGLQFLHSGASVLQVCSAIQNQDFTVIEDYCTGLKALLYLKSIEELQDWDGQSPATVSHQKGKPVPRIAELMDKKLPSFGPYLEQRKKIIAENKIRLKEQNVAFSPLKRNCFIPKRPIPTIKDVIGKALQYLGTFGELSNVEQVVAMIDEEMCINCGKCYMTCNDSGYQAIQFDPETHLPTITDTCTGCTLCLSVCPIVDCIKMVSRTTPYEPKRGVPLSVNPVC
Briefly: 5-Vinyluracil, 5-iodouracil and gimeracil as stabilizer of 5-FU in spiked donor blood. In kind it is biochemical. As to conditions: 500 ng/mL 5-FU; 5-iodouracil 10/40 μg/mL, 5-vinyluracil 5/20 μg/mL, gimeracil 300/1,200 ng/mL; 45 minutes room temperature (FIG. 3). On the procedure: (§1) In the following illustrative examples, 5-FU was measured using an antibody-based agglutination assay on the Olympus AU680 Analyzer using an antibody disclosed in U.S. Pat. No. 7,205,116. Specifically, the concentration of 5-FU in a sample is determined based on the absorbance of a sample, which is determined by the amount of aggregation by the nanoparticles. The system requires two reagents, which when mixed in the absence of free 5-FU will form large aggregates of nanoparticles and scatter light to result in a higher absorption value. In the presence of free 5-FU, the agglutination reaction becomes somewhat inhibited and scattering of light is less, causing a lower absorption value. The instrument is calibrated twice monthly, and a curve is generated (Absorbance vs. 5-FU concentration). Absorbance values from individual samples are compared against this curve to determine concentration.
Generally in the agglutination assay, 95 μl of a buffer containing 5-FU-labeled amino-dextran is pipetted to a cuvette, followed by 7 μL of a filtered plasma sample. The sample and reagent are mixed and then incubated for about 3.5 minutes. 95 μl of 5-FU antibody-conjugated nanoparticles is pipetted into the cuvette and mixed. The complete reaction incubates for about 6.2 minutes. A series of 27 measurements at 600 nm are taken at regular intervals by the AU680 analyzer throughout this process, and 5-FU concentration is calculated using the measurements from two specific time points.
Three tubes of blood (spray-on K2EDTA tubes, 10 mL) was drawn from each of six donors, and blood tubes were gently inverted several times to mix anti-coagulant. Blood was pooled and kept separate by donor. An aliquot of each blood sample was transferred to a new conical tube, and a calculated volume of stock 5-FU (at 200 ng/μL) was spiked into each blood sample for a final concentration of 500 ng/mL 5-FU. Each blood sample was aliquotted to a set of four tubes (5 mL blood per tube). Each set of tubes was different, but included a combination of the conditions below: […]

Assay [2] addresses T1, dihydropyrimidine dehydrogenase (DPD). Briefly: Eniluracil as stabilizer of 5-FU in spiked donor blood (5-FU agglutination immunoassay). In kind it is biochemical. As to conditions: eniluracil 4000 or 1000 ng/mL final in blood, DMSO; 500 ng/mL 5-FU; room temperature 45 minutes or 24 hours (FIG. 2). On the procedure:
as §1
Generally in the agglutination assay, 95 μl of a buffer containing 5-FU-labeled amino-dextran is pipetted to a cuvette, followed by 7 μL of a filtered plasma sample. The sample and reagent are mixed and then incubated for about 3.5 minutes. […] A series of 27 measurements at 600 nm are taken at regular intervals by the AU680 analyzer throughout this process, and 5-FU concentration is calculated using the measurements from two specific time points. […]

Consider `O=c1[nH]cc(I)c(=O)[nH]1` [5-iodouracil], for which the “stabilizing 5-FU in blood samples” value in assay [1] is “effective”. With `C=Cc1c[nH]c(=O)[nH]c1=O` [5-vinyluracil], the “stabilizing 5-FU in blood samples” value in assay [1] is “effective”. For the compound `C#Cc1c[nH]c(=O)[nH]c1=O` [eniluracil], the “preventing degradation of 5-FU in blood samples” value in assay [2] was “effective”.

The record behind these values is patent US8440442B2, “Method of assaying 5-FU” (Myriad Genetics, Inc, priority 2009, dated 2013).
